Laboratory results reported in US20130178479A1, “PHARMACEUTICAL COMBINATIONS” (NOVARTIS AG, priority 2010, published 2013).
Read-outs that look alike come from different tables or passages of the source.

Columns and labels:
[1] = test system: PI3K/mTOR; conditions: cited from earlier work
[2] = test system: SK-BR3 Human Breast Cancer cells; assay: Cell proliferation assay (CellTiter-Glo) in SK-BR3; assay type: cell-based; conditions: for IC50: Homo sapiens, SK-BR-3
Description: (§1) Celt Proliferation Assay: Cell viability was determined by measuring cellular ATP content using the CellTiter-Glo® Luminescent Cell Viability Assay (Promega #G7573) according to manufacturer's protocol. Briefly, 1500-50000 cells were plated on either 384 or 96 well plates in 30 μl (384 well) or 100 μl (96 well) growth media, cells were: allowed to attach overnight and followed by 72 hrs of incubation with various concentration of drugs or drug combinations (10 μl per well in 384 well plates), at the end of the drug treatment, 30 μl of the CellTiter-Glo regent were added to each well (384 well plates) to lyse the cell, and luminescence signals were recorded on a Envision plate reader.
The cells were plated at 2000 cells/well in 96 well plates in triplicates, and treated with compound for 72 hrs prior to the measurement. The following dose matrix, everolimus: 8 dose, 2×, […] to 15 nM, Compound A: 8 dose, 2×, 2 μM to 15 nM, was applied.

[3] = test system: RPMI 8226 human Multiple Myeloma cancer cells; assay: Cell proliferation assay (CellTiter-Glo) in RPMI 8226; assay type: cell-based; conditions: for IC50: Homo sapiens
Description: as §1
(§2) Method for calculating the effect of the Combination: To evaluate the everolimus and Compound A combination effect in a non-bias way and to identify synergistic effect at all possible concentrations, the combination studies were conducted with a “dose matrix”, where a combination is tested in all possible permutations of serially-diluted everolimus and Compound A single agent doses, in all combination assays, compounds were applied simultaneously. Single agent dose responding curves, IC50, IC90, and the Synergy are all analyzed using Chalice software (CombinatoRx, Cambridge, Mass.). Synergy was calculated by comparing a combination's response to those of its single agents, against the drug-with-itself dose-additive reference model. Deviations from dose additivity can be assessed visually on an Isobologram or numerically With a Combination Index. Excess inhibition compare to additivity can also be plotted as a full dose-matrix chart to capture where the synergies occur. To quantify the overall strength of combination effects, a volume score VHSA=ΣXYInfXInfY(Idata−IHSA) is also calculated between the data and the highest-single-agent surface, normalized for single agent dilution factors fX,fY[ref].
The cells were plated at 50000 cells/well in 96 well plates in triplicates, and treated with compound for 72 hrs prior to the measurement (FIG. 12). The following “dose matrix”, everolimus: 8 dose, 3×, 500 nM to 0.23 nM, Compound A: 8 dose, 2×, 1 μM to 8 nM, was applied.

[4] = test system: NCI-H23 human non-small cell lung cancer cells; assay: Cell proliferation assay (CellTiter-Glo) in NCI-H23; assay type: cell-based; conditions: for IC50: Homo sapiens
Description: as §1, §2
The experiment setup is identical to the p4EBP1 high content assay as used for the NCI-H23 cell model, (FIG. 5). And the same “doss matrix” (everolimus; 5 dose, 4×, 1.2 μM to 5 nM, Compound A: 9 dose, 2×, 1.2 μM to 5 nM) was applied.
Another experiment was conducted to evaluate the combination effect using cell titer glow (CTG) assay, this time, cells were plated in 384 well plates at 1000 cells/well in triplicates, and treated with compound for 72 hours before the measurement (FIG. 6). in this extended “dose matrix” study, everolimus was subjected to a 11 dose 4× serial dilution with the highest dose at 1 uM and the low dose at about 1 pM, and Compound A was subjected to a 9 dose 4× serial dilution with high dose at 1 μM and low dose at about 16 pM.

[5] = test system: six cell lines from various tissue lineages; assay: Antiproliferative effect of combinations, summary over six cell lines; assay type: cell-based, human; conditions: depends on the cell types
Description: as §1
Method for calculating the effect of the Combination: To evaluate the everolimus and Compound A combination effect in a non-bias way and to identify synergistic effect at all possible concentrations, the combination studies were conducted with a “dose matrix”, where a combination is tested in all possible permutations of serially-diluted everolimus and Compound A single agent doses, in all combination assays, compounds were applied simultaneously. Single agent dose responding curves, IC50, IC90, and the Synergy are all analyzed using Chalice software (CombinatoRx, Cambridge, Mass.). […] Deviations from dose additivity can be assessed visually on an Isobologram or numerically With a Combination Index. […]

[6] = test system: MDA-MB-361 Human Breast Cancer cells; assay: Cell proliferation assay (CellTiter-Glo) in MDA-MB-361; assay type: cell-based; conditions: for IC50: Homo sapiens
Description: as §1
The cells were plated at 2000 cells/well in […] in triplicates, and treated with compound for 72 hrs prior to the measurement. The following “dose matrix”, everolimus: 8 dose, 2×, 2000 nM to 15 nM, Compound A: 8 dose, 2×, 2 μM to 15 nM, was applied.

[7] = single agent, SK-BR3, 72 hrs, read-out: IC50, inhibition of cell growth
[8] = single agent, RPMI 8226, 72 hrs
[9] = NCI-H23, 72 h, single agent, extended dose matrix, 72 hours (FIG. 6), read-out: IC50, inhibition of cell growth
[10] = single agent, dose matrix 1.2 μM to 5 nM (FIG. 5)
[11] = single agent, extended dose matrix, 72 hours (FIG. 6)
[12] = single agent, MDA-MB-361, 72 hrs

For `Cn1c(=O)n(-c2ccc(C(C)(C)C#N)cc2)c2c3cc(-c4cnc5ccccc5c4)ccc3ncc21` [Compound A, 2-methyl-2-[4-(3-methyl-2-oxo-8-quinolin-3-yl-2,3-dihydro-imidazo[4,5-c]quinolin-1-yl)-phenyl]-propionitrile], the “concentration at which mTOR inhibition predominates” value ([1]; low concentration) is given as “less than 100 nmol/L”, the “concentration at which dual PI3K/mTOR inhibition is observed” value ([1]; relatively higher concentrations) is given as “approximately 500 nmol/L” and the “full effective dose range of Compound A” value ([2]; Compound A alone, SK-BR3) is given as 120 nM. The IC50 ([2]; concomitant everolimus, SK-BR3, read-out: IC50 for Compound A, cell growth) was less than 0.015 µM, the IC50 [2, 7] was roughly 0.031 µM and the Amax ([2]; single agent, SK-BR3, 72 hrs) was 0.67. The “full effective dose range of Compound A” value ([2]; with low dose everolimus, SK-BR3) was less than 15 nM, the “full effective dose amount of Compound A” value ([3]; Compound A alone, RPMI 8226) was greater than 125 nM and the IC50 ([3]; concomitant everolimus, RPMI 8226, read-out: IC50 for Compound A, cell growth) was 0.016 µM. For the same molecule, the IC50 ([3]; single agent, RPMI 8226, 72 hrs, read-out: IC50, inhibition of cell growth) was roughly 0.125 µM, the Amax [3, 8] was 0.7 and the “full effective dose amount of Compound A” value ([3]; with trace amount (sub-nanomolar) of everolimus, RPMI 8226) was 16 to 62 nM. The IC50 [4, 9] was 0.08 µM, the IC50 ([4]; NCI-H23, in combination with 5 nM everolimus, read-out: IC50 for Compound A, cell growth) was 0.01 µM and the IC50 ([4]; NCI-H23, single agent, dose matrix 1.2 μM to 5 nM (FIG. 5), read-out: IC50, inhibition of cell growth) was 0.078 µM. The “Amax, the maximum fraction of inhibition” value [4, 10] was 0.7, the “growth inhibition compare to DMSO control (at Amax)” value [4, 10] was 70% and the Amax [4, 11] was 0.7. The “reduction on IC50 of Compound A, cell growth” value ([4]; with 5 nM everolimus vs Compound A alone) was 8 fold, the “enhancement of the potency of Compound A by everolimus” value [5] was 5-100 fold and the “full effective dose range of Compound A” value ([6]; Compound A alone, MDA-MB-361) was 120 nM. The IC50 ([6]; concomitant everolimus, MDA-MB-361, read-out: IC50 for Compound A, cell growth) was less than 0.015 µM, the IC50 ([6]; single agent, MDA-MB-361, 72 hrs, read-out: IC50, inhibition of cell growth) was roughly 0.06 µM and the Amax [6, 12] was 0.81. The “full effective dose range of Compound A” value ([6]; with low dose everolimus, MDA-MB-361) was less than 15 nM.
Molecule `CO[C@H]1C[C@@H]2CC[C@@H](C)[C@@](O)(O2)C(=O)C(=O)N2CCCC[C@H]2C(=O)O[C@H]([C@H](C)C[C@@H]2CC[C@@H](OCCO)[C@H](OC)C2)CC(=O)[C@H](C)/C=C(\C)[C@@H](O)[C@@H](OC)C(=O)[C@H](C)C[C@H](C)/C=C/C=C/C=C/1C` [everolimus, 40-O-(2-hydroxyethyl)-rapamycin, reference compound] has an IC50 [2, 7] of less than 0.015 µM, an Amax ([2]; single agent, SK-BR3, 72 hrs) of 0.50 and an Amax [3, 8] of 0.15. For the same molecule, the IC50 [4, 9] was greater than 1 µM, the “Amax, the maximum fraction of inhibition” value [4, 10] was 0.3 and the “IC50, inhibition of cell growth” value [4, 10] was “never achieved an IC50”. The Amax [4, 11] was 0.3 and the Amax [6, 12] was less than 0.50.
